The values that follow come from patent US20250082656A1, “DOSAGE REGIMENS FOR TREATMENT OF DENGUE INFECTION” (Atea Pharmaceuticals, Inc., priority 2022, published 2025).

The structures appear in SMILES notation. Where two headings read alike, the source gives them in different places.

Usually Cmax stands for the peak of the concentration-time curve.

For data set [1] the following is noted: for Tmax / AUCtau / Cmax: steady-state, human plasma; for Tmax: median (minimum-maximum); for AUCtau / Cmax: mean±SD.
Data set [2] can be described thus: Multiple-dose tolerability and steady state exposure, mice. The class given is in vivo, CD-1 mice. The protocol: There were no adverse clinical signs observed in the mice so the multiple doses of the prodrug were well-tolerated.
Separately, two mouse studies with multiple dosing were conducted. First, 9 naïve CD-1 mice were administered Compound 1 (AT-281) in 100 mM citrate buffer, pH 4.5 by oral gavage at 500 mg/kg for the first dose and, 4 h later, 250 mg/kg for the second dose. Blood samples were collected, 3 animals per time point, at 4 (before the second dosing), 8 and 16 h post the first dose, and PBMCs isolated. Secondly, 9 naïve CD-1 mice were administered Compound 1 (AT-281) by oral gavage at 1000 mg/kg for the first dose, and then 4 h later, they were given twice daily doses 12 hours apart for 3 consecutive days at 500 mg/kg. Blood samples were collected, 3 animals per time point, at 16 (received one 500 mg/kg dose), 40 (received three 500 mg/kg doses) and 76 h post first dose (received six 500 mg/kg doses), and PBMCs were isolated.
(§1) Pharmacokinetic measurements for FIGS. 11, 12, 13, 14, and 15 were analyzed using LC-MS/MS according to the protocol described herein. Plasma samples were prepared for MS analysis by adding internal standards and extracting with 20 volumes chilled ACN. After vortex (800 rpm for 10 min) and centrifugation (4,000 rpm, 15 min, 4° C.), the supernatants (25 μL) were diluted with an equal volume of H2O, mixed and spun again. After adding internal standards, the PBMC samples (10^6 cells) were lyzed with 300 μL MeOH/H2O (70:30, v/v) and 40 mM dibutylammonium acetate (DBAA), mixed by vortex and centrifuged (12,000 rpm, 15 min, 4° C.). Aliquots of the supernatants (35 μL) were dried under nitrogen and reconstituted in H2O, then mixed and spun again. […] A binary nonlinear gradient with mobile phases A (0.1% formic acid in water) and B (0.1% formic acid in ACN) were used to elute samples at 0.8 mL/min, with a run time of 5 min. […] A binary nonlinear gradient with mobile phases A (0.001% NHr H2O, 0.18 mM DBAA in H2O) and B (10 mM N,N-dimethyl-hexylamine, 3 mM NH4OAc in ACN/H2O (50.50, v/v)) were used to elute samples at 0.5 mL/min, with a run time of 3 min. Standards in 50% MeOH were used for calibration. […] Internal standards (ISS) as described previously (Good et al., Preclinical evaluation of AT-527, a novel guanosine nucleotide prodrug with potent, pan-genotypic activity against hepatitis C virus. PLos One 15:e02271045) were used to correct for variations in recovery.

Data set [3] can be described thus: Plasma PK after single oral dose of AT-752, rats. The class given is in vivo, SD rats. To be noted: Rat, single oral AT-752 300 mg/kg. The protocol:
Male SD rats were administered 300 mg/kg Compound 2 (AT-752). Blood samples were collected up to 24 hrs. post dose, plasma separated and analyzed for Compound 1 (AT-281), Compound 3 (AT-551), and Compound 6 (AT-273) by LC-MS/MS. Data are express as mean+/−SD (n=3-5/time point). The x-axis is time post the dose measured in hours and the y-axis is the plasma concentration of the metabolites measured in nanomoles/mL). The experimental procedure is provided in Example 14.
Male naïve SD rats (Beijing Vital River Laboratory Animals Co. Ltd., China) were administered a dose of AT-752 at 300 mg/kg in 40% PEG400, 10% solutol HS15, 50% 100 mM citrate buffer, pH 4.5 (v/v) by oral gavage. Blood samples (n=4) were collected at 1, 2, 4, 8, 12 and 24 h post-dose, plasma separated and stored at −70° C. […] For PBMCs, nine male naïve SD rats were administered a dose of Compound 2 (AT-752) (at a Compound 1 (AT-281) equivalent dose of 300 mg/kg) by oral gavage.
as §1
(§2) Data analysis of the pharmacokinetic data generated according to Example 21 and presented in FIGS. 11, 12, 13, 14, and 15 was analyzed according to the procedure described herein. Plasma concentrations of Compound 1 (AT-281), Compound 3 (AT-551) and Compound 6 (AT-273) were subjected to non-compartmental pharmacokinetic analysis using Phoenix WinNonlin software (version 6.3 or above, Pharsight, Mountain View, CA). The linear/log trapezoidal rule was applied in obtaining the PK parameters.

Data set [4] in a line: Plasma PK after single oral dose of AT-752, monkeys. The following applies: Monkey, single oral AT-752 300 mg/kg. The data set is classed as in vivo, cynomolgus monkeys. The protocol: Male cynomolgus monkeys were administered 300 mg/kg Compound 2 (AT-752). Blood samples were collected up to 24 hrs. post dose, plasma separated and analyzed for Compound 1 (AT-281), Compound 3 (AT-551), and Compound 6 (AT-273) by LC-MS/MS. Data are express as mean+/−SD (n=3-5/time point). The x-axis is time post the dose measured in hours and the y-axis is the plasma concentration of the metabolites measured in nanomoles/mL). The experimental procedure is provided in Example 14.
Male non-naïve cynomolgus monkeys (Hainan Jingang Laboratory Animal Co. Ltd., China), at least 2 kg body weight, were individually housed during the study in stainless steel mesh cages, provided ad libitum access to RO water, fed twice daily (except on the day of dosing when they were fed once) with ˜60 g Certified Monkey Diet each feed (Beijing Vital Keao Feed Co., Ltd., Beijing, China) and given daily treats of fresh fruit. They (n=5) were administered a dose of Compound 2 (AT-752) at 300 mg/kg in 40% PEG400, 10% solutol HS15, 50% 100 mM citrate buffer, pH 4.5 (v/v) by oral gavage, and blood samples (˜0.5 mL) were collected at 1, 2, 4, 8, 12 and 24 h post dose. Plasma was separated at each time point for pharmacokinetics, and stored at −70° C. […] Separately, three monkeys were given an oral dose of Compound 2 (AT-752) as powder in capsules at 60 mg/kg ([…] (AT-281) equivalent dose of 55 mg/kg), and blood samples collected at 12, 24 and 48 h post dose.
as §1, §2

Setting [5] is: 1000 mg/kg loading then 500 mg/kg twice a day for 3 days, 12 h after the sixth 500 mg/kg dose.
The mark [6] stands for this setting: 1000 mg/kg loading then 500 mg/kg twice a day, 12 h after the first 500 mg/kg dose.

For the compound `CNc1nc(N)nc2c1ncn2[C@@H]1O[C@H](CO[P@](=O)(N[C@@H](C)C(=O)OC(C)C)Oc2ccccc2)[C@@H](O)[C@@]1(C)F` [Compound 1, isopropyl ((R)-(((2R,3R,4R,5R)-5-(2-amino-6-(methylamino)-9H-purin-9-yl)-4-fluoro-3-hydroxy-4-methyltetrahydrofuran-2-yl)methoxy)(phenoxy)phosphoryl)-L-alaninate], the Tmax in data set [1] (Compound 2 750 mg TID) is listed as 0.5 (0.5-1.0) h. For the same compound, the “tolerability of multiple doses (adverse clinical signs)” value in data set [2] (1000 mg/kg loading then 500 mg/kg twice a day for 3 days) is on record as “well-tolerated”. Also, the “plasma concentration at 1 h, the earliest time point measured” value in data set [3] is on record as “below the limit of quantitation”. In addition, the “time present in plasma” value in data set [4] was “more than 4 h”. In data set [4] (plasma), the AUC0-24 h amounted to 9.5 ± 3.7 µM·h, the Cmax was 3700 ± 1500 nM and the Tmax turned out to be 1 h.
On to `C[C@@]1(F)[C@H](O)[C@@H](COP(=O)(O)OP(=O)(O)OP(=O)(O)O)O[C@H]1n1cnc2c(=O)[nH]c(N)nc21` [Compound 5], for which the results for the “concentration of AT-9010 in pooled PBMCs” value in data set [2] (setting [5]) and in data set [2] (setting [6]) were 0.575 pmol/10^6 cells and 0.421 pmol/10^6 cells, respectively.
Turning to `C[C@@]1(F)[C@H](O)[C@@H](CO)O[C@H]1n1cnc2c(=O)[nH]c(N)nc21` [Compound 6, 2′-fluoro-2′-C-methylguanosine], the “increase of plasma exposure on multiple dosing” value in data set [1] (BID) is approximately 60%; in data set [1] (QD) it was “approximately 25%”; in data set [1] (TID), approximately 80%. Further, the AUCtau in data set [1] (Compound 2 750 mg BID) came out at 2680 ± 730 ng·h/mL; in data set [1] (Compound 2 750 mg TID) it was 2370 ± 743 ng·h/mL; in data set [1] (Compound 2 1000 mg QD) it was 3120 ± 694 ng·h/mL. Besides, the Cmax in data set [1] (Compound 2 750 mg BID) amounted to 288 ± 58 ng/mL; in data set [1] (Compound 2 750 mg TID) it was 330 ± 98 ng/mL; in data set [1] (Compound 2 1000 mg QD), 241 ± 56 ng/mL; in data set [3] (plasma) it was 1300 ± 300 nM; in data set [4] (plasma) it was 800 ± 200 nM. Also, the Tmax in data set [1] (Compound 2 750 mg BID) is on record as 3.5 (3.0-4.0) h; in data set [1] (Compound 2 750 mg TID), 3.5 (3.0-6.0) h; in data set [1] (Compound 2 1000 mg QD) it was 4.0 (3.0-4.0) h; in data set [3] (plasma), 8.0 ± 0.0 h. For the same compound, the plasma concentration in data set [2] (setting [5]) turned out to be 1350 ± 860 nM; in data set [2] (setting [6]) it was 670 ± 120 nM. In addition, the AUC0-24 h came out at 22.9 µM·h in data set [3] (plasma) and 7.8 ± 2.4 µM·h in data set [4] (plasma).
